Structures can show the parent of a compound that is named as a salt.
What was measured:
[1] = biological target: T1, δ opioid receptor (Mus musculus, UniProt P32300); test: Mouse vas deferens (MVD): antagonism against the δ agonist DPDPE, pA2 by Schild method; type: cell-based
T1 construct: Each of the vas deferens isolated from the mice was hung in a Magnus tube; from tissue; host or cells: vas deferens of male ddy strain mice
Protocol: Using mouse vas deferens (MVD), the compounds were examined for antagonism against opioid receptor agonists, i.e., morphine (μ), DPDPE (δ), and U50,488H (κ).
Male ddy strain mice were used in this experiment. Each of the vas deferens isolated from the mice was hung in a Magnus tube which was maintained at 37° C., filled with a Krebes-Henseleit solution (NaCl 118 mM; KCl 4.7 mM; CaCl2 2.5 mM; KH2PO4 1.1 mM; NaHCO3 25 mM; glucose 11 mM), and aerated with 5% carbon dioxide and 95% oxygen. Electric stimulation was applied through upper and lower ring-shaped platinum electrodes at 0.1 Hz and 5.0 mS. Tissue contraction was recorded on a polygraph using an Isometric Transducer.
Morphine, DPDPE, and U50,488H were added in a cumulative manner to determine the IC50 values (concentration for 50% inhibition of contraction induced by electric stimulation). Next, 10 nM of a sample compound was added to the system beforehand, and 20 minutes later, morphine, DPDPE, and U50,488H were added in a cumulative manner. According to the above procedure, the ratio of the IC50 values of morphine, DPDPE, and U50,488H in the presence of the sample compound to that in its absence was determined, and the pA2 values were calculated in accordance with the Schild et al.'s method (Schild, H. O., Br. J. Pharamacol. Chemother. 4, 277 (1949)).

T1 sequence (P32300 whole entry): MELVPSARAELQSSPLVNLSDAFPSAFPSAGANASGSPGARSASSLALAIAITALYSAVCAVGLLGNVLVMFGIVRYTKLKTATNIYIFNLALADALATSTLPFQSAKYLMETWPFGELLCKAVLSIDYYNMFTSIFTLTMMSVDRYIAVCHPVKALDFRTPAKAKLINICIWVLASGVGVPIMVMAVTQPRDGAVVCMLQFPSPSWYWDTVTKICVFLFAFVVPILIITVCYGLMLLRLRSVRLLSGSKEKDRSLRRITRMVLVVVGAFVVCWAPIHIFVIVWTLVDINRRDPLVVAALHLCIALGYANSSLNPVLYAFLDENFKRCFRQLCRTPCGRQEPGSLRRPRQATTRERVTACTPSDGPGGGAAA

Row | Structure (SMILES) | melting point | Kb [1] [nM]
1 | Oc1ccc2c3c1O[C@H]1c4c(c5c(O)c(F)cc6c5n4CCC6)C[C@@]4(O)[C@@H](C2)N(CC2CC2)CC[C@]314 (as salt: methanesulfonate) | 280 °C (dec.) | –
2 | Oc1ccc2c3c1O[C@H]1c4c(c5cc(F)cc6c5n4CC[C@@H]6O)C[C@@]4(O)[C@@H](C2)N(CC2CC2)CC[C@]314 (as salt: methanesulfonate) [Compound 3, 17-cyclopropylmethyl-6,7-didehydro-4,5α-epoxy-8′-fluoro-5′,6′-dihydro-4′H-pyrrolo[3,2,1-ij]quinolino[2′,1′:6,7]-morphinan-3,6′β,14β-triol] | 240 °C (dec.) | –
3 | Oc1ccc2c3c1O[C@H]1c4c(c5cc(F)cc6c5n4CC[C@@H]6O)C[C@@]4(O)[C@@H](C2)N(CC2CC2)CC[C@]314 [Compound 3, 17-cyclopropylmethyl-6,7-didehydro-4,5α-epoxy-8′-fluoro-5′,6′-dihydro-4′H-pyrrolo[3,2,1-ij]quinolino[2′,1′:6,7]-morphinan-3,6′β,14β-triol] | – | 3.98

From patent publication US6770654B2, “Indole derivatives and use thereof in medicines” (Toray Industries, Inc., priority 2000, dated 2004)
